Reference: patent US20170056496A1 (Sanofi, priority 2008, published 2017)
Where two headings read alike, the source gives them in different places.

How the values were obtained:
[1] = for Comments: toxicity statement: toxicity = ≧20% body weight loss or 10% drug death
murine CD38 = target: T1, murine CD38 (Mus musculus, UniProt P56528); test: Cross-reactivity of the antibody with murine CD38; format: binding
T1 sequence (P56528 1-304): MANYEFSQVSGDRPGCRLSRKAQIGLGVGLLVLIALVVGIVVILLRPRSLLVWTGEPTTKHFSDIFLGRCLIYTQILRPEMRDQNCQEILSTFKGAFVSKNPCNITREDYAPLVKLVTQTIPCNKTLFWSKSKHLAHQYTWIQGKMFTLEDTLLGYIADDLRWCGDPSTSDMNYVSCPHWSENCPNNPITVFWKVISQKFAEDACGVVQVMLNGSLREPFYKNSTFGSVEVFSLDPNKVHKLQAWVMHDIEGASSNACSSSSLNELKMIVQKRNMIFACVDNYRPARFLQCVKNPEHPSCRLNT

[2] = CPA alone, 286.1 mg/kg/inj (total 572.2), listed as CPA, 286.1 mg/kg

Compound	deaths (deaths out of mice) [1, 2]	Comments: toxicity statement ([1]; CPA alone, 286.1 mg/kg/inj (total 572.2), 286.1 mg/kg)	Comments: toxicity statement [1, 2]	deaths, percent of mice ([1]; CPA alone, 286.1 mg/kg/injection)	% BWC at nadir (day) ([1]; CPA alone, IV day 11, 15, 68.2 mg/kg/inj (total 136.4), nadir day 18)	% BWC at nadir (day) ([1]; CPA alone, IV day 11, 15, 110.0 mg/kg/inj (total 220.0), nadir day 17)	% BWC at nadir (day) ([1]; CPA alone, IV day 11, 15, 286.1 mg/kg/inj (total 572.2), nadir day 20)	Comments: toxicity statement (HNTD = highest nontoxic dose) ([1]; CPA alone, […] (total 354.8))	cross-reactivity with murine CD38 (murine CD38)	% BWC at nadir (day) ([1]; mouse, in vivo, iv, 40 mg/kg)
O=P1(N(CCCl)CCCl)NCCCO1 (stereo not shown) [cyclophosphamide]	⅗	Toxicity	Toxic	60%	−3.8 (18) %	−5.2 (17) %	−21.2 (20) %	HNTD	–	–
hu38SB19: humanized anti-CD38 monoclonal antibody 38SB19; VH SEQ ID NO: 66, VL chosen from SEQ ID NOS: 62 and 64	–	–	–	–	–	–	–	–	lack of cross-reactivity	+5.4 (19) %
